Experimental data reported in ChEMBL document CHEMBL5729670, “Method for controlling hematophagous or sap-feeding arthropods” (2023).

Assay: thallium-flux assay: The thallium flux assay is an in vitro method of measuring conductance through a potassium ion channel. Potassium channels are also permeable to thallium ions. The modulation of a K+ channel will thus increase or decrease thallium ion flow through the channel and thus, alter the observed fluorescence of a thallium-specific indicator dye.Stably transfected T-Rex-HEK-293-AnKir1 cells were cultured overnight in 384-well plates in media containing DMEM, 10% dialyzed FBS, and 1 μg/mL tetracycline to induce channel expression. The next day the cell culture medium was replaced with a dye-loading solution containing assay buffer (Hanks Balanced Salt Solution with 20 mM HEPES, pH 7.3), 0.01% (w/v) Pluronic F-127 (Life Technologies, Carlsbad, Calif.), and 1.2 μM of the thallium-sensitive dye Thallos-AM (TEFlabs, Austin, Tex.). After 1 hr incubation at room temperature, the dye-loading solution was washed from the plates and replaced with 20 μL/well of assay buffer. The plates were transferred to a Hamamatsu Functional Drug Screening System 6000 (FDSS6000; Hamamatsu, Tokyo, Japan), where 20 μL/well of each of the test compounds in assay buffer was added and allowed to incubate with the cells for 20 min. […]

O=C(Cn1nc(C(F)(F)F)c2c1CCCC2)N1CCc2ccccc2C1
IC50: 15 µM
